US8247211B2, “Glycopeptide antibiotics” (American Cyanamid Company, priority 2001, dated 2012)
Values after ≈ are worked out from the molar mass of the structure shown.

What was measured:
Experiment in all cases: In vitro antibacterial evaluation: minimum inhibitory concentration (MIC), broth dilution method
Assay type in all cases: cell-based
Staphylococcus sp. = conditions: for MIC Staphylococcus haemolyticus (GC 4546): strain GC 4546; for MIC Coagulase Negative Staphylococcus (GC 4547): strain GC 4547; for MIC Coagulase Negative Staphylococcus (GC 4551): strain GC 4551; for MIC Coagulase Negative Staphylococcus (GC 6257): strain GC 6257
Protocol: (§1) The minimum inhibitory concentration (MIC), the lowest concentration of the antibiotic which inhibits growth of the test organism, is determined by the broth dilution method using Muller-Hinton II […] (Baltimore Biological Laboratories) following the recommendations of the National Committee for Clinical Laboratory Standards [Methods for dilution antimicrobial susceptibility tests for bacteria that grow aerobically, approved standard M7-A2, National Committee for Clinical Laboratory Standards, Villanova, Pa].
(§2) An inoculum level of 5×10^5 CFU/mL, and a range of antibiotic concentrations (64-0.06 μg/mL) is used. […] The test organisms include a spectrum of Gram-positive bacteria comprised of Staphylococcus sp., Streptococcus sp. and Enterococcus sp. These organisms include recent clinical isolates that are resistant to methicillin, penicillin and/or vancomycin.

Escherichia coli = conditions: 5×10^5 CFU/mL, 18 hours at 35° C.
Protocol: as §1, §2

Enterococcus sp. = conditions: broth dilution, 5×10^5 CFU/mL, 18 hours at 35° C.
Protocol: as §1, §2

Streptococcus sp. = conditions: broth dilution, 5×10^5 CFU/mL, 18 hours at 35° C.
Protocol: as §1, §2

[1] = broth dilution, 18 hours at 35° C.

MIC Staphylococcus aureus (GC 3051) (Staphylococcus sp.; strain GC 3051): 0.5 µg/mL (≈ 0.361 µM)
MIC Staphylococcus aureus (GC 3053) (Staphylococcus sp.; strain GC 3053): 0.5 µg/mL (≈ 0.361 µM)
MIC Staphylococcus aureus (GC 4542) (Staphylococcus sp.; strain GC 4542): 0.5 µg/mL (≈ 0.361 µM)
MIC Staphylococcus aureus (GC 4544) (Staphylococcus sp.; strain GC 4544): 0.5 µg/mL (≈ 0.361 µM)
MIC Staphylococcus aureus (GC 4545) (Staphylococcus sp.; strain GC 4545): 0.5 µg/mL (≈ 0.361 µM)
MIC Coagulase Negative Staphylococcus (GC 4547) (Staphylococcus sp.): 32 µg/mL (≈ 23.1 µM)
MIC Coagulase Negative Staphylococcus (GC 4547) (Staphylococcus sp.; [1]): 32 µg/mL (≈ 23.1 µM)
MIC Coagulase Negative Staphylococcus (GC 4551) (Staphylococcus sp.): 32 µg/mL (≈ 23.1 µM)
MIC Coagulase Negative Staphylococcus (GC 4551) (Staphylococcus sp.; [1]): 32 µg/mL (≈ 23.1 µM)
MIC Coagulase Negative Staphylococcus (GC 6257) (Staphylococcus sp.): 16 µg/mL (≈ 11.6 µM)
MIC Coagulase Negative Staphylococcus (GC 6257) (Staphylococcus sp.; [1]): 16 µg/mL (≈ 11.6 µM)
MIC Escherichia coli (ATCC 25922) (Escherichia coli): >64 µg/mL
MIC Escherichia coli (GC 4559) (Escherichia coli): >64 µg/mL
MIC Enterococccus avium (GC 4558) (Enterococcus sp.): >64 µg/mL
MIC Enterococccus faecalis (ATCC 29212) (Enterococcus sp.): >64 µg/mL
MIC Enterococccus faecalis (GC 2691) (Enterococcus sp.): >0.5 µg/mL
MIC Enterococccus faecalis (GC 3059) (Enterococcus sp.): >0.5 µg/mL
MIC Enterococccus faecalis (GC 4552) (Enterococcus sp.): >0.5 µg/mL
MIC Enterococccus faecalis (GC 4553) (Enterococcus sp.): >0.5 µg/mL
MIC Enterococccus faecalis (GC 4554) (Enterococcus sp.): >0.5 µg/mL
MIC Enterococccus faecalis (GC 6189) (Enterococcus sp.): >64 µg/mL
MIC Enterococccus faecium (GC 2243) (Enterococcus sp.): >64 µg/mL
MIC Enterococccus faecium (GC 4556) (Enterococcus sp.): >64 µg/mL
MIC Enterococccus faecium (GC 4557) (Enterococcus sp.): 0.5 µg/mL (≈ 0.361 µM)
MIC Enterococcus faecalis (GC 2242) (Enterococcus sp.): >64 µg/mL
MIC Streptococcus agalactiae (GC 4564) (Streptococcus sp.): 0.5 µg/mL (≈ 0.361 µM)
MIC Streptococcus pneumoniae (GC 4565) (Streptococcus sp.): 0.12 µg/mL (≈ 0.0867 µM)
MIC Streptococcus pneumonine (ATCC 6301) (Streptococcus sp.): 0.12 to 16 µg/mL
MIC Streptococcus pyogenes (GC 4563) (Streptococcus sp.): 0.12 µg/mL (≈ 0.0867 µM)
Compound: CC(c1ccccc1)C1NC(=O)CNC(=O)C(CO)NC(=O)C(C(O)C2CNC(=N)N2C2OC(CO)C(O)C(O)C2O)NC(=O)C(C(O)C2CNC(=N)N2)NC(=O)C(Cc2ccc(OC3OC(CO)C(OC4OC(CO)C(O)C5OC(c6ccccc6)OC45)C(O)C3O)cc2)NC1=O (single isomer, unassigned) [Example 104a, Cyclo[glycyl-β-methylphenylalanyl-O-[4-O-(2,3-O-benzylidenehexopyranosyl)hexopyranosyl]-tyrosyl-3-(2-iminoimidazolidin-4-yl)seryl-3-(3-hexopyranosyl-2-iminoimidazolidin-4-yl)-serylseryl]]
MIC Staphylococcus haemolyticus (GC 4546) (Staphylococcus sp.): 32 µg/mL (≈ 23.1 µM)
MIC Staphylococcus haemolyticus (GC 4546) (Staphylococcus sp.; [1]): 32 µg/mL (≈ 23.1 µM)
